From article PMC6890839, “The Antimalarial Chloroquine Reduces the Burden of Persistent Atrial Fibrillation” (Frontiers in Pharmacology, 2019)

Tested on: T1, Kir3.1 and Kir3.4 (IKACh)
T1 construct: gene KCNJ3; heterotetramer
Test: whole-cell patch clamp, HEK293, block of Ba-sensitive current
Type: cell-based
Conditions: -140 mV step from -20 mV holding; about 24 °C; bath pH 7.4, 50 mM KCl; pipette 0.1 mM GTP; Hill slope -0.48

IC50: 1.2 µM
Compound: CCN(CC)CCCC(C)Nc1ccnc2cc(Cl)ccc12 (stereo not shown) [chloroquine]
